# From PMC8637530, “Modulatory Actions of the Glycine Receptor β Subunit on the Positive Allosteric Modulation of Ethanol in α2 Containing Receptors” (Frontiers in Molecular Neuroscience, 2021)
# Experiments:
# Experiment in all cases: whole-cell patch clamp, HEK293
# Type in all cases: cell-based
# Settings in all cases: -60 mV, 20-24 °C, pH 7.4; agonist
# [1] = system: T1, α2 GlyR (homomeric)
# T1 construct: gene GLRA2; recombinant homomeric receptor expressed in HEK293 cells
# From the text: whole-cell patch clamp, HEK293 on α2 GlyR (homomeric)
# [2] = system: T2, α1 GlyR (homomeric)
# T2 construct: gene GLRA1; recombinant homomeric receptor expressed in HEK293 cells; EGFP co-transfected
# From the text: whole-cell patch clamp, HEK293 on α1 GlyR (homomeric)
# [3] = system: T3, α1β GlyR (heteromeric)
# T3 construct: gene GLRA1; recombinant heteropentamer in HEK293 cells, excess beta cDNA (1 μg alpha/EGFP plus 4 μg beta)
# From the text: whole-cell patch clamp, HEK293 on α1β GlyR (heteromeric)
smiles,measurement,setting,value
NCC(=O)O [Glycine],EC50,[1],86 ± 2 µM
